Laboratory results published in article PMC9000735, “In Vitro Alpha-Glucosidase Inhibitory Activity and the Isolation of Luteolin from the Flower of Gymnanthemum amygdalinum (Delile) Sch. Bip ex Walp” (Molecules, 2022).
Like-named read-outs stand apart in the source and are kept apart here.

Experiments:
α-glucosidase = biological target: T1, α-glucosidase (Saccharomyces cerevisiae, UniProt P53341); experiment: biochemical; settings: for IC50: mean ± SD, n = 3, linear regression
T1 construct: purchased Sigma-Aldrich G5003
Procedure: A specific spray reagent, citroborate (5 g citric acid, 5 g boric acid, and 100 mL ethanol), and 10% (v/v) H2SO4 in a MeOH solution were used to identify flavonoids and other compounds. Additionally, during extraction and separation, the entire solvents were distilled before use, making them of technical grade.
Alpha-glucosidase inhibition was assessed using the adopted method with slight modifications. Phosphate buffer solution (36 μL), a sample solution with different concentrations ([…]), and pNPG substrate with 6 mM concentration (17 μL) were successively added to 96 microplate wells. The incubation of this mixture was performed at 37 °C for 5 min. In each well, 17 μL of alpha-glucosidase solution at 0.2 U/mL was added to obtain a total volume of […], which was followed by incubation at 37 °C for 15 min. Furthermore, the initial reaction was brought to completion by the addition of Na2CO3 solution (100 μL) at 200 mM. […] Percentage inhibition was used to express the inhibitory activity of alpha-glucosidase, while the calculation followed the formula below:
Inhibition percentage (%) = (B1–B2)/B1 × 100%.
B1 = Blank absorbance * − control of blank absorbance **
B2 = Sample absorbance − control of sample absorbance ***
The IC50 was calculated using a linear regression equation (y = a + bx) in which the sample concentration was represented on the x-axis and the percentage inhibition was represented on the y-axis.

alpha-glucosidase = system: alpha-glucosidase; design: method as in PMID 35215317; settings: cited from earlier work

T1 sequence (P53341 whole entry): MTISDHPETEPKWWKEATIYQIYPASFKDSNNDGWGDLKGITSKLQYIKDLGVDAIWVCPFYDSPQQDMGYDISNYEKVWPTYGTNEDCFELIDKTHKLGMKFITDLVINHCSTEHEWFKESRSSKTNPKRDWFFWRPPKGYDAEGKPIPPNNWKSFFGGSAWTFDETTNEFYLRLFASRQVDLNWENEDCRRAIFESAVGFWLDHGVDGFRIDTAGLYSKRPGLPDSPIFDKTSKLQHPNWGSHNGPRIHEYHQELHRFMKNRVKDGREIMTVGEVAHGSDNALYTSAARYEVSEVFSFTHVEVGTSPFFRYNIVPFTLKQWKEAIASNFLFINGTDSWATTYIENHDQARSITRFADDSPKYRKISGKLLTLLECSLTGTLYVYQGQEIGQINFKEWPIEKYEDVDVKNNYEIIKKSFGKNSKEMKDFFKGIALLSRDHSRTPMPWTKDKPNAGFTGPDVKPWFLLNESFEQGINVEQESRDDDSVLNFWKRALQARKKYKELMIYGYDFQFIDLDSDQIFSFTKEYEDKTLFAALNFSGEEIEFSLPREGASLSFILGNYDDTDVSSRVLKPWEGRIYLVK

SMILES	IC50 (α-glucosidase) [µM]	inhibition at 100 µg/mL (α-glucosidase) [%]	inhibition at 200 µg/mL (α-glucosidase) [%]	inhibition at 100 µg/mL (α-glucosidase; read-out: Inhibition (in %)) [%]	inhibition at 200 µg/mL (α-glucosidase; read-out: Inhibition (in %)) [%]	inhibition mechanism type (alpha-glucosidase)
COc1c(-c2ccc(O)c(O)c2)oc2cc(O)cc(O)c2c1=O [Compound 2, 2-(3,4-dihydroxyphenyl)-5,7-dihydroxy-3-methoxy-4H-chromen-4-one]	126					
C[C@H]1O[C@H](O[C@H]2[C@H](O)[C@@H](O)[C@@H](O[C@H]3[C@H](O)[C@@H](O)C(O)O[C@@H]3CO)O[C@@H]2CO)[C@H](O)[C@@H](O)[C@@H]1N[C@H]1C=C(CO)[C@@H](O)[C@H](O)[C@H]1O (stereo partly shown) [Acarbose, acarbose]		42.13 ± 0.12	66 ± 1.11	43.1 ± 0.92	66.8 ± 2.11	
O=c1cc(-c2ccc(O)c(O)c2)oc2cc(O)cc(O)c12 [Compound 1, 2-(3,4-dihydroxyphenyl)-5,7-dihydroxy-4H-chromen-4-one]	22.8					non-competitive
